# Like-named read-outs stand apart in the source and are kept apart here.
# Columns and labels:
# NCIH460 = experiment: Anti-cancer screen (MTT), NCIH460; assay type: cell-based; details: Homo sapiens, NCI-H460, 48 hours with compound, tested at 0.01-100 µM
# Method in brief: (§1)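 GI50, TGI and LC50 derived from % growth, normalized to untreated wells and a time-zero plate read at compound addition. Compound applied for 48 h at five concentrations (0.01–100 μM) to 5000 cells/well in DMEM with 10% FBS; viability by 3 h MTT, read at 570 nm.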
# MDAMB-231/U 251 = experiment: Anti-cancer screen (MTT), MDAMB-231/U 251; assay type: cell-based; details: for CC50: read-out: MDAMB-231/U 251 LC50
# Method in brief: as §1
# HDAC = HDAC inhibition; assay type: biochemical; details: for HDAC Inhibition 1 μM: compound at 1 μM; for HDAC Inhibition 10 μM: compound at 10 μM
# HCT116 = experiment: Anti-cancer screen (MTT), HCT116; assay type: cell-based; details: Homo sapiens, HCT-116, 48 hours with compound, tested at 0.01-100 µM; for CC50: read-out: HCT116 LC50
# Method in brief: as §1
# [1] = test system: NCIH460, HCT116, MDAMB-231/U 251; experiment: Anti-cancer screen, mean GI50 over the cell lines; assay type: cell-based; details: in µM
# Method in brief: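 Growth was scored by MTT absorbance at 570 nm relative to control wells and a pre-treatment T0 reading. Compounds were tested at five final concentrations (0.01–100 µM, triplicate) for 48 h on NCIH460, HCT116 and U251 cells, each plated at 5000 cells/well 24 h before dosing.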
# [2] = 48 hours with compound, MTT, tested at 0.01-100 µM
Structure (SMILES),GI50 (NCIH460) [µM],IC (TGI) (NCIH460) [µM],LC50 (NCIH460) [µM],CC50 (MDAMB-231/U 251; 48 h) [µM],GI50 (MDAMB-231/U 251; [2]) [µM],IC (TGI) (MDAMB-231/U 251; [2]) [µM],HDAC Inhibition 1 μM (HDAC),HDAC Inhibition 10 μM (HDAC),GI50 (HCT116) [µM],IC (TGI) (HCT116) [µM],LC50 (concentration giving 50% net cell kill relative to T0) (HCT116) [µM],Mean GI50 [1],CC50 (MDAMB-231/U 251; [2]) [µM],CC50 (HCT116) [µM]
"O=C(Cc1csc(NC(=O)OCc2cccs2)n1)NO [Example 2, 2-Thienylmethyl{4-[2-(hydroxyamino)-2-oxoethyl]-1,3-thiazol-2-yl}carbamate]",> 100,> 100,> 100,> 100,> 100,> 100,0.8,22.42,> 100,> 100,> 100,>100,,
"O=C(CSC(F)F)Nc1cccc(NC(=O)c2ccc(CNC(=O)OCc3cccs3)cc2)c1 [Example 108, 2-Thienylmethyl[4-({[3-({[(difluoromethyl)thio]acetyl}amino)phenyl]amino}carbonyl)benzyl]carbamate]",9.5,> 100,> 100,> 100,5,15,−8.74,−0.86,100,> 100,> 100,>100,,
"O=C(NCc1ccc(C(=O)Nc2nnc(C3CC3)s2)cc1)OCc1nccs1 [Example 65, 1,3-Thiazol-2-ylmethyl(4-{[(5-cyclopropyl-1,3,4-thiadiazol-2-yl)amino]carbonyl}benzyl)carbamate]",12,85,> 100,> 100,5,45,11.65,8.84,36,> 100,> 100,17.67,,
"CCOC(=O)Cc1csc(NC(=O)c2ccc(CNC(=O)OCc3cccs3)cc2)n1 [Example 54, Ethyl{2-[(4-{[(2-thienylmethyloycarbonyl)amino]methyl}benzoyl)amino]-1,3-thiazol-4-yl}acetate]",0.05,0.8,91,> 100,0.2,62,0.6,8.1,3,9.3,97,1.1,,
"CON(C)C(=O)c1ccc(CNC(=O)OCc2cccs2)cc1 [Example 48, 2-Thienylmethyl(4-{[methoxy(methyl)amino]carbonyl}benzyl)carbamate]",1,31,> 100,> 100,0.03,57,4.8,1.9,4.3,9,65,1.8,,
"CC(=O)ONC(=O)c1ccc(CNC(=O)OCc2nccs2)cc1 [Example 83, 1,3-thiazol-2-ylmethyl(4-{[(acetyloxy)amino]carbonyl}benzyl)carbamate]",30,60,90,> 100,9,66,22.38,63.89,10,56,84,16.33,,
"O=C(NCc1ccc(C(=O)N2CCN(Cc3ccc4c(c3)OCO4)CC2)cc1)OCc1nc2ccccc2s1 [Example 66, 1,3-Benzothiazol-2-ylmethyl(4-{[4-(1,3-benzodioxol-5-ylmethyl)piperazin-1-yl]carbonyl}benzyl)carbamate]",1,> 100,> 100,> 100,6,> 100,8.57,12.98,4.8,> 100,> 100,3.93,,
"O=C(NCc1ccc(C(=O)NO)cc1)OCn1nnc2ccccc21 [Example 34, 1H-1,2,3-Benzotriazol-1-ylmethyl{4-[(hydroxyamino)carbonyl]benzyl}carbamate]",58,> 100,> 100,> 100,30,> 100,62.1,98.6,60,> 100,> 100,49.3,,
"O=C(Cc1csc(NC(=O)OCc2cccnc2)n1)Nc1ccccc1O [Example 19, Pyridin-3-ylmethyl(4-{2-[(2-hydroxyphenyl)amino]-2-oxoethyl}-1,3-thiazol-2-yl)carbamate]",1,60,> 100,> 100,7.6,80,,0.50,34,> 100,> 100,14.2,,
"O=C(CCCNC(=O)Cc1csc(NC(=O)OCc2nccs2)n1)NO [Example 95, 1,3-Thiazol-2-ylmethyl[4-(2-{[4-(hydroxyamino)-4-oxobutyl]amino}-2-oxoethyl)-1,3-thiazol-2-yl]carbamate]",93,> 100,> 100,> 100,> 100,> 100,−2.89,4.19,> 100,> 100,> 100,>100,,
"O=C(NCc1ccc(C(=O)N2CCN(Cc3ccc4c(c3)OCO4)CC2)cc1)OCc1cccs1 [Example 52, 2-Thienylmethyl(4-{[4-(1,3-benzodioxol-5-ylmethyl)piperazin-1-yl]carbonyl}benzyl)carbamate]",0.04,0.5,> 100,> 100,1.3,> 100,2.2,4.1,0.4,5.8,> 100,0.6,,
"O=C(NCc1ccc(C(=O)Nc2ccccc2NC(=O)c2ccc3c(c2)OCO3)cc1)OCc1cccs1 [Example 106, 2-thienylmethyl(4-[({(2-{1,3-benzodioxol-5-ylcarbonyl}amino)-phenyl}amino)carbonyl]benzyl)carbamate]",0.44,107,> 100,> 100,5.2,> 100,2.1,7.2,> 100,> 100,> 100,2.8,,
"CC(=O)N(O)C(=O)Cc1csc(NC(=O)OCc2cccs2)n1 [Example 80, 2-Thienylmethyl(4-{2-[acetyl(hydroxy)amino]-2-oxoethyl}-1,3-thiazol-2-yl)carbamate]",53,> 100,> 100,> 100,35,96,,5.28,> 100,> 100,> 100,>100,,
"O=C(Cc1csc(NC(=O)OCc2cc(Br)cs2)n1)NO [Example 7, (4-Bromo-2-thienyl)methyl{4-[2-(hydroxyamino)-2-oxoethyl]-1,3-thiazol-2-yl}carbamate]",10,70,> 100,,15,74,7.07,46.41,25,80,,16.7,> 100,> 100
"CC(=O)N(O)C(=O)Cc1csc(NC(=O)OCc2ccc(Br)s2)n1 [Example 78, (5-bromo-2-thienyl)methyl(4-{2-[acetyl(hydroxy)amino]-2-oxoethyl}-1,3-thiazol-2-yl)carbamate]",6.5,45,> 100,,20,75,3.61,35.88,30,80,,18.8,> 100,> 100
O=C(Nc1ccc(C(=O)NO)cc1)OCC1c2ccccc2-c2ccccc21 [Example 76],10,82,> 100,90,3,9,50.50,75.80,7.5,65,> 100,6.8,,

# Source: patent US20100152188A1, “Novel Heterocyclic Compounds” (priority 2005, published 2010)
